Tests used:
IL-1β = experiment: Quantitative RT-PCR of irradiated skin: IL-1β mRNA; type: in vivo, mouse; conditions: irradiated WT mice, TXA in drinking water, day 9 after irradiation
Experimental: (§1) Skin samples were homogenized in TRIzol (Ambion) using Precellys CK28R tubes on a Precellys 24 homogenizer (both from Bertin Technologies, France) according to the manufacturer's instructions. Total RNA was extracted with PureLink RNA Mini Kit (Ambion) according to the manufacturer's instruction. 2.5 μg of total RNA was reverse transcribed using Superscript VILO cDNA synthesis kit (Invitrogen) and diluted 3 fold with DEPC-water. Expression of genes were analyzed using quantitative real-time PCR with Comparative CT method and with TBP mRNA as the internal reference gene. The gene-specific primers and probes (TaqMan Gene Expression Assays) were from Applied Biosytems, and 2× SsoAdvanced Universal Probes Supermix was from BIO-RAD. Each sample was run in triplicate on StepOnePlus Instrument (Applied Biosystems) using real-time PCR cycling conditions for 2× SsoAdvanced Universal Probes Supermix.
(§2) In this experiment, mice were treated as in Example 3, with the exception that TXA was given in drinking water in dose 700 mg/kg/day. Real-time PCR was performed as described in Example 3.

plasminogen = target: T1, plasminogen (Mus musculus, UniProt P20918); experiment: Burn wound model: plasminogen accumulation in wound skin extracts (ELISA); type: in vivo; conditions: WT mice, TXA 800 mg/kg injected three times at 8 h intervals, skin at 24 h after wounding, compared to mice treated with PBS
T1 construct: Burn wounds were introduced to three WT mice and TXA (800 mg/kg) was injected three times at 8 h intervals; from tissue; host or cells: skin of wild-type mice (burn wound), in vivo
T1 sequence (P20918 20-812 limits assumed): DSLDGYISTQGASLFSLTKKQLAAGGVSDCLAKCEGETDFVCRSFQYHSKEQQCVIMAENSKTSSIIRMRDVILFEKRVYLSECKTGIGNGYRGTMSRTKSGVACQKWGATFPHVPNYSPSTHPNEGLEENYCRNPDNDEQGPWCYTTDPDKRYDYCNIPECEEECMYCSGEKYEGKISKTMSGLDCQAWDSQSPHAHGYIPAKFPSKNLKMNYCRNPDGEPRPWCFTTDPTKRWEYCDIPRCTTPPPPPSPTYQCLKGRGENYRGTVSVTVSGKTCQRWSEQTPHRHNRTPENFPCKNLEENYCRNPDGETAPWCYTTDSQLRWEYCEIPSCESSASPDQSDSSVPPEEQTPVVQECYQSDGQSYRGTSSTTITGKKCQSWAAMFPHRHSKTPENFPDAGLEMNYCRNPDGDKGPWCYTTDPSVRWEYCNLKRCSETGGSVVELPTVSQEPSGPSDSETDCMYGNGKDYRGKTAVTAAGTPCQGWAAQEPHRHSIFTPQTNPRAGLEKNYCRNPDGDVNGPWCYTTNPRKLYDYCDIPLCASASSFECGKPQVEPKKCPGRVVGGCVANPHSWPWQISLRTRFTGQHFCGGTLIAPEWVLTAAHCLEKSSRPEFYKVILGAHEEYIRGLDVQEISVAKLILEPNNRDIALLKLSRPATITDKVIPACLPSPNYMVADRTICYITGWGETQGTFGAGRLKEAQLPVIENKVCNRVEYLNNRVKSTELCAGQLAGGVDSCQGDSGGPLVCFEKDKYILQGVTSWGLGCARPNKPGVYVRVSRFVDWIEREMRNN
Experimental: Dorsal skin samples from irradiated and not-irradiated control mice were homogenized in a lysis buffer (50 mM Tris-HCl buffer pH 8.0 with 120 mM NaCl, 1 mM EDTA, 6 mM EGTA, 1% NP-40 and 1 mM DTT) supplemented with PhosSTOP phosphatase inhibitors and Complete Ultra mini protease inhibitor cocktail tablets (both from Roche, Basel, Switzerland). The skin extracts were then kept at −20° C. until use. Total protein concentration in the extracts was quantified using Pierce BCA protein assay kit, according to the manufactural instruction (ThermoFisher Scientific, Waltham, U.S.A). Mouse IL-6 and TNF-alpha levels in the extracts were measured using specific ELISA kits from eBioscience (San Diego, U.S.A). Mouse plasminogen was quantified with a mouse plasminogen-specific ELISA (Omnio AB, Umeå, Sweden).
Mice were anesthetized with Dormicum/Hypnorm and burn wounds were made with a brass stave as described previously (Shen et al. 2012, Blood 119:5879). The mice were given a single injection of Temgesic (Schering-Plough, Brussels, Belgium) the day after burning. All mice were individually caged, and wounds were neither sutured nor dressed.
Initially, the burn wound model (Shen et al. 2012, Blood 119:5879) was used to test whether TXA has an effect on plasminogen accumulation in the wound. […]

PAI-1 = experiment: Quantitative RT-PCR of irradiated skin: PAI-1 mRNA; type: in vivo, mouse; conditions: irradiated WT mice, TXA in drinking water, day 9 after irradiation
Experimental: as §1, §2

IL-6 = experiment: Quantitative RT-PCR of irradiated skin: IL-6 mRNA; type: in vivo, mouse; conditions: irradiated WT mice, TXA in drinking water, day 9 after irradiation
Experimental: as §1, §2

TGF-β = experiment: Quantitative RT-PCR of irradiated skin: TGF-β mRNA; type: in vivo, mouse; conditions: irradiated WT mice, TXA in drinking water, day 9 after irradiation
Experimental: as §1, §2

[1] = test system: radiation-induced dermatitis; experiment: Radiation-induced dermatitis model (15 Gy to dorsal skin), radio-dermatitis documented by photos and scored; type: in vivo, mouse; conditions: for development and severity of radio-dermatitis: irradiated WT mice
Experimental: Dorsal skin of mice had been shaved 3 days prior to irradiation. For the irradiation, the mice were anesthetized by intraperitoneal injection of 150 μl mixture containing Ketaminol vet. (Intervet AB, Sollentuna, Sweden) and Dormitor vet. (Orion Pharma AB, Espoo, Finland). Mice were laid into a lead box to protect the whole body from irradiation, while the dorsal skin was gently stretched out through a 4 cm-long gap in the bottom of the box and maintained with medical tape. Irradiation box with a mouse was then placed in Gammacell 40 exactor (Ashford, UK) that has two Caesium-137 sources. Irradiation was given as a single dose of 1 Gy per minute over 15 min (total dose 15 Gy).
Digital photographs of the dorsal skin were taken on the specified days after irradiation. The wound size was quantified using Image J (National Institute of Mental Health, Bethesda, Md.). Severity of radio-dermatitis was scored, with the scores defined as: 0=normal, 1=erythema, 2=desquamation, 3=ulcer.
WT and plg^+/− were intraperitoneally injected with 800 mg/kg of TXA in PBS three times per day. The injections started 2 days before the irradiation and continued for 15 days after the irradiation. Development of dermatitis was documented by digital photos and skin samples were analyzed as described in Example 2.
as §2

## NC[C@H]1CC[C@H](C(=O)O)CC1 [TXA, trans-4 (aminomethyl) cyclohexanecarboxylic acid]
IL-1β
  level of IL-1β expression in skin: very low
plasminogen
  inhibition of plasminogen accumulation in wounds: 50%
PAI-1
  expression of PAI-1 in skin: decreased expression
IL-6
  expression of IL-6 in skin: decreased expression
TGF-β
  expression of TGF-β in skin: decreased expression
[1]; TXA 800 mg/kg intraperitoneally three times per day, from 2 days before to 15 days after irradiation, vs carrier
  development and severity of radio-dermatitis: delayed development of dermatitis and with a lower severity
[1]; TXA in drinking water 700 mg/kg/day, vs control WT mice treated with water only
  development and severity of radio-dermatitis: significant delay in development of radio-dermatitis and a lower severity of skin damage
[1]; irradiated plg+/- mice, TXA 800 mg/kg intraperitoneally three times per day, from 2 days before to 15 days after irradiation
  development of radio-dermatitis: completely blocked
[1]; irradiated plg+/- mice, TXA in drinking water 700 mg/kg/day
  formation of radiodermatitis: totally inhibited formation of radiodermatitis

From patent US20180280329A1, “INHIBITORS OF PLASMINOGEN FOR TREATING, REDUCING OR PREVENTING RADIATION-INDUCED INJURIES” (OMNIO AB, priority 2015, published 2018)
